Source: US20050037975A1, “Method for treatment of glutamate related disorders” (priority 1997, published 2005)

Tested on: ALDH2
Experiment: In vitro inactivation of aldehyde dehydrogenase
Type: biochemical
Protocol: To test whether the protective effect of DETC-MeSO in hyperbaric O2-induced convulsions in mice could be due to inhibition of succinic semi-aldehyde dehydrogenase (SSA DH), mechanistically related to ALDH2, the sensitivity of SSA DH to inactivation by DETC-MeSO was determined. Potentially, inhibition of SSA DH in brain could offset the build up of ammonia known to occur and produce more GABA. In vitro both ALDH2 and SSA DH are inactivated by DETC-MeSO at 47 M-1 s-1 and 300 M-1 s-1, respectively.

- inactivation rate of ALDH2 (in vitro): 47 M⁻¹ s⁻¹
- rate for enzyme (ALDH) inactivation (under physiological conditions): 40 M⁻¹ s⁻¹
SMILES: CCN(CC)C(=O)[S+](C)[O-] (stereo not drawn) [DETC-MeSO, S-Methyl-N,N-Diethylthiolcarbamate Sulfoxide]
